Measured values as given in ChEMBL document CHEMBL4118289, “Developing hybrid molecule therapeutics for diverse enzyme inhibitory action: Active role of coumarin-based structural leads in drug discovery” (Bioorg Med Chem, 2018).

How the values were obtained:
[1] = Non-competitive inhibition of baker's yeast alpha-glucosidase using pNPG as substrate preincubated for 10 mins followed by substrate addition measured after 30 mins by Lineweaver-Burk plot analysis; set-up: species or system Saccharomyces cerevisiae
Rattus norvegicus [2] = experiment: Antiinflammatory activity in albino rat assessed as inhibition of carrageenan-induced paw edema at 10 umol/kg, sc pretreated for 1 hr followed by carrageenan challenge measured after 4 hrs by plethysmographic method relative to control; assay type: functional
[3] = target: Prostaglandin G/H synthase 1 (Homo sapiens, UniProt P23219); experiment: Inhibition of human COX1 using [14C]arachidonic acid as substrate preincubated for 5 mins followed by substrate addition measured after 2 mins by TLC
Chain of Prostaglandin G/H synthase 1 (P23219 whole entry): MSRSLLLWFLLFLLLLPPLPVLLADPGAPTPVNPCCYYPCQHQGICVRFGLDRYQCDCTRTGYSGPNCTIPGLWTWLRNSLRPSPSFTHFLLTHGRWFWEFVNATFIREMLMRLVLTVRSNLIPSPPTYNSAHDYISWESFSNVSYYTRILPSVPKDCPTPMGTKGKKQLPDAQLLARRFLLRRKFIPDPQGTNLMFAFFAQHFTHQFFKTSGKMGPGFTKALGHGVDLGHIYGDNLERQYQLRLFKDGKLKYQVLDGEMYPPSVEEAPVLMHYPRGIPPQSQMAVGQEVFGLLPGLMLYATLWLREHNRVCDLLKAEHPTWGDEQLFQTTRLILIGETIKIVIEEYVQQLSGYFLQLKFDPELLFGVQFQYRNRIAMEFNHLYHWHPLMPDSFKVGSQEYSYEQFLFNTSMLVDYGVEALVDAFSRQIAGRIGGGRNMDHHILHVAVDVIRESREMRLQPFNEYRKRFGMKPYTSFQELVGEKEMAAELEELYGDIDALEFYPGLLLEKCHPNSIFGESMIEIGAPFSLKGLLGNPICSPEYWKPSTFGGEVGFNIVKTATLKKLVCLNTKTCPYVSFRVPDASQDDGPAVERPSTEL

Saccharomyces cerevisiae = experiment: Potency index, ratio of acarbose IC50 to compound IC50 for Saccharomyces cerevisiae alpha-glucosidase
[4] = target: Aldo-keto reductase family 1 member B1 (Bos taurus, UniProt P16116); experiment: Inhibition of calf lens ALR2 using D,L-glyceraldehyde as substrate preincubated for 5 mins followed by NADPH addition measured after 10 mins by UV spectrophotometric method
[5] = target: Cholinesterase (Equus caballus) (UniProt P81908); experiment: Potency index, ratio of galanthamine IC50 to compound IC50 for equine serum BChE
Chain of Cholinesterase (Equus caballus) (P81908 whole entry): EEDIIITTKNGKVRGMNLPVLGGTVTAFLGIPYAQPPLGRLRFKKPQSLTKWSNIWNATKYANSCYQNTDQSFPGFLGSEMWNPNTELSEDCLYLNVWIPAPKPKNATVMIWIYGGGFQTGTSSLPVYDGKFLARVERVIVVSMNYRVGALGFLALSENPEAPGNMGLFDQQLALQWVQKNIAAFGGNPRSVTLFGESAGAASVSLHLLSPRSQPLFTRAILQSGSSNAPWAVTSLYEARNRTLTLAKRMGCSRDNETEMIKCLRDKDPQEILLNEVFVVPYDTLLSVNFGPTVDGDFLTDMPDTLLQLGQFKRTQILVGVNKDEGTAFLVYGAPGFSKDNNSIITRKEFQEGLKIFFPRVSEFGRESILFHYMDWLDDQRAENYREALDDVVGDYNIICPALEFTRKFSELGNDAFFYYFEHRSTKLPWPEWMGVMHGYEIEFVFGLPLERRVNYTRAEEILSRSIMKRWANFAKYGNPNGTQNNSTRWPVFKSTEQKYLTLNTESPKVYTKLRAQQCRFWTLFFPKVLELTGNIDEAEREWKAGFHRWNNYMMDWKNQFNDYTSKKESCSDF

Cholinesterase [6] = target: Cholinesterase (Equus caballus, UniProt P81908); experiment: Inhibition of equine serum BChE using butyrylthiocholine iodide as substrate preincubated for 15 mins followed by substrate addition by Ellman's method
Chain of Cholinesterase (Equus caballus, UniProt P81908) (P81908 whole entry): as above

[7] = target: Aldo-keto reductase family 1 member B1 (Bos taurus) (UniProt P16116); experiment: Potency index, ratio of valproic acid IC50 to compound IC50 for bovine kidney ALR1
Rattus norvegicus [8] = experiment: Antiinflammatory activity in Wistar rat assessed as inhibition of formalin-induced paw oedema at 20 mg/kg, po equiv of indomethacin pretreated for 1 hr followed by formalin addition measured up to 6 hrs post dose by plethysmographic method relative to control; assay type: functional
Lipoxygenase = Lipoxygenase (Glycine max, UniProt Q39829)
Description: Inhibition of soybean lipoxygenase

Acetylcholinesterase [9] = target: T1, Acetylcholinesterase (Homo sapiens, UniProt P22303); experiment: Potency index, ratio of 7-MEOTA IC50 to compound IC50 for human erythrocyte AChE
T1 sequence (P22303 whole entry): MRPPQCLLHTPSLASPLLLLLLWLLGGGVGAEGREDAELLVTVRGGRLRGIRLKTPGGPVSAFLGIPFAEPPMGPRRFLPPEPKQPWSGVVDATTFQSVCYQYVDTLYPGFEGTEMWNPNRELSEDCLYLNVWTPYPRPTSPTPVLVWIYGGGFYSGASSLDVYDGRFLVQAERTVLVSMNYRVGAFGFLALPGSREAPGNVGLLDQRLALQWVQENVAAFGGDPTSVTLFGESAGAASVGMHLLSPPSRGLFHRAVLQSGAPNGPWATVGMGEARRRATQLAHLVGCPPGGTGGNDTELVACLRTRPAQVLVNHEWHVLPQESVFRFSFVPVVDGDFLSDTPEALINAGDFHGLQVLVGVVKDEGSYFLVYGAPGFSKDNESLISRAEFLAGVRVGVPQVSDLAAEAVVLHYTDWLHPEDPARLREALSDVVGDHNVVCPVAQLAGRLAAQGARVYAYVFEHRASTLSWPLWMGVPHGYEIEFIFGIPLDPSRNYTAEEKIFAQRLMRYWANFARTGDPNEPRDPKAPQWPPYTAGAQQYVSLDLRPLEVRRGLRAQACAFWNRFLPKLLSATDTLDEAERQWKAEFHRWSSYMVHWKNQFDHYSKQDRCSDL

Cholinesterase [10] = target: Cholinesterase (Homo sapiens, UniProt P06276); experiment: Inhibition of human plasmatic BuChE using butylthiocholine as substrate preincubated for 5 mins followed by substrate addition measured at 1 min time interval by Ellman's method
Chain of Cholinesterase (Homo sapiens, UniProt P06276) (P06276 whole entry): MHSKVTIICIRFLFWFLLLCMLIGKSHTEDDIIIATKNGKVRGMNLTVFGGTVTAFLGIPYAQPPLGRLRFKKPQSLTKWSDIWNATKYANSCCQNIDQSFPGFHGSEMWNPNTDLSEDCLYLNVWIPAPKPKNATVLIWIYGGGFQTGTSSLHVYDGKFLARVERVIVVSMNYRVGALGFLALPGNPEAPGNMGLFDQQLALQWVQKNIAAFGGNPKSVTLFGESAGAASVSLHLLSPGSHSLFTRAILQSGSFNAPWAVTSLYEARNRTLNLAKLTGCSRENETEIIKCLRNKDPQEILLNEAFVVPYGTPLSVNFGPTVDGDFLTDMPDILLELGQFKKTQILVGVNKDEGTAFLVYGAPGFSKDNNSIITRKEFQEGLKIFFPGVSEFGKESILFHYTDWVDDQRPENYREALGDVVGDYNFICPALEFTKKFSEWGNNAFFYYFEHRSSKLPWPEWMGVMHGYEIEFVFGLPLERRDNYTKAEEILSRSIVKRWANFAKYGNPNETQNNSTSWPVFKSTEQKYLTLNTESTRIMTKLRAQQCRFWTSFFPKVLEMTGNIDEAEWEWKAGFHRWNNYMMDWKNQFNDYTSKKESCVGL

Acetylcholinesterase [11] = target: T1, Acetylcholinesterase
[12] = target: Aldo-keto reductase family 1 member B1 (Bos taurus) (UniProt P16116); experiment: Potency index, ratio of sulindac IC50 to compound IC50 for calf lens ALR2
Bos taurus = species: Bos taurus; experiment: Selectivity index, ratio of IC50 for bovine kidney ALR1 to IC50 for calf lens ALR2
[13] = target: Intestinal-type alkaline phosphatase (Bos taurus, UniProt P19111)
Chain of Intestinal-type alkaline phosphatase (P19111 whole entry): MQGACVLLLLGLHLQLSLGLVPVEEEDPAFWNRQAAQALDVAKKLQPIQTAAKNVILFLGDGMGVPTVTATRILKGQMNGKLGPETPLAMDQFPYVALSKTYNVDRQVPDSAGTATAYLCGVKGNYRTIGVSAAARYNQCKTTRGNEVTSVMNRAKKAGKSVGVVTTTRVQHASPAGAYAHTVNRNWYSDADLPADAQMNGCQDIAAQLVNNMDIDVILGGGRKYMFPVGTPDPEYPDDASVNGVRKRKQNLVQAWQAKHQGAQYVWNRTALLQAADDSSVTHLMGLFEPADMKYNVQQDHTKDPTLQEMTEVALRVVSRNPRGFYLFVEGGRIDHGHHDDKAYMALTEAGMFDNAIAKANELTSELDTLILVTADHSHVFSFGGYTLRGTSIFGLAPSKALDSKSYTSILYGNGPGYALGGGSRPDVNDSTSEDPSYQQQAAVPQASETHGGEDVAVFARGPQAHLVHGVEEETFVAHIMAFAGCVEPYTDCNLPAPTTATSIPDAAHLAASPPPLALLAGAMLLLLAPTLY
Description: Inhibition of calf intestinal alkaline phosphatase using pNPP as substrate preincubated for 10 mins followed by substrate addition measured after 30 mins

[14] = target: Lipoxygenase (Glycine max) (UniProt Q39829); experiment: Potency index, ratio of NDGA IC50 to compound IC50 for soybean lipoxygenase
Tyrosinase = target: T2, Tyrosinase (Agaricus bisporus, UniProt O42713); experiment: Inhibition of mushroom tyrosinase using L-DOPA as substrate preincubated for 10 mins followed by substrate addition measured after 20 mins
T2 sequence (O42713 whole entry): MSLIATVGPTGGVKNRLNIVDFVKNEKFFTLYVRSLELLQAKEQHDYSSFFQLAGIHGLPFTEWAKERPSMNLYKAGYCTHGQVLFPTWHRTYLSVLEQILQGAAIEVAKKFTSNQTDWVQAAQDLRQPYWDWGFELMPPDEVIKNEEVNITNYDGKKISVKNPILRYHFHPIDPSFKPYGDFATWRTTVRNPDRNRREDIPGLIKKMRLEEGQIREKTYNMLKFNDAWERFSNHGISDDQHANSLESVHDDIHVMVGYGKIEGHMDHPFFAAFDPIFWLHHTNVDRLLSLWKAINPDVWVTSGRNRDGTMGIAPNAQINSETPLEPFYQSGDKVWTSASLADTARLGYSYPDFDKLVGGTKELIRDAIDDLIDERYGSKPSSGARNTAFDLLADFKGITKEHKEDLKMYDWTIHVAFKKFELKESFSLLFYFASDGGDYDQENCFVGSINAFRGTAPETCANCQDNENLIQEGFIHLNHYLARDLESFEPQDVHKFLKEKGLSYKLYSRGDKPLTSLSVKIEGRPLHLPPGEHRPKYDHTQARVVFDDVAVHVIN

Homo sapiens = species: Homo sapiens; experiment: Selectivity ratio of IC50 for human COX1 to IC50 for human COX2

`O=C(N/N=C/c1cc(Cl)cc(Cl)c1O)c1nc(-c2cc3ccccc3oc2=O)cs1` showed a Ki [1] of 6.86 µM.
With `CCOC(=O)C1=C(C)N(CC)/C(=N\N=C(/C)c2cc3ccccc3oc2=O)C1` the inhibition in vivo at 10 µmol/kg (Rattus norvegicus [2]) was 94.5% and the IC50 [3] was 56 to 167 µM.
`O=C(Cn1c(Cc2ccc(Br)cc2)nc2ccccc2c1=O)NNC(=O)c1cc2ccccc2oc1=O` showed a Ratio IC50 (Saccharomyces cerevisiae) of 4 to 5.
Work on `O=c1oc2ccccc2cc1-c1nn(CNc2ccccc2Cl)c(=S)o1` yielded an IC50 [4] of 0.31 µM.
`O=C(Nc1ccc(F)cc1)Nc1nc(-c2cc3cc([N+](=O)[O-])ccc3oc2=O)cs1` gave a Ratio IC50 [5] of 4 and an IC50 (Cholinesterase [6]) of 4.93 µM.
`C/C(=N\N=C1\CCC(=O)N1C)c1cc2ccccc2oc1=O` showed an inhibition in vivo at 10 µmol/kg (Rattus norvegicus [2]) of 71.9% and an IC50 [3] of 56 to 167 µM.
`O=C(Cn1c(Cc2ccc(Cl)c(Cl)c2)nc2ccccc2c1=O)NNC(=O)c1cc2ccccc2oc1=O` showed a Ratio IC50 (Saccharomyces cerevisiae) of 4 to 5.
With `C/C(=N\Nc1nc(-c2cc3ccccc3oc2=O)cs1)c1ccc(Cl)cc1N` the Ratio IC50 [7] was 125.
Compound `CCCCNCn1nc(-c2cc3ccccc3oc2=O)oc1=S` has a Ratio IC50 [7] of 17.
Compound `O=c1oc2ccccc2cc1-c1nn(CN2CCOCC2)c(=S)o1` has an IC50 [4] of 0.34 µM.
For `O=c1oc2cc(Cl)ccc2cc1-c1nc2ccccc2[nH]1`, the inhibition in vivo at 20 mg/kg (Rattus norvegicus [8]) was 47%.
Compound `O=c1oc2ccccc2c(O)c1/C=C/n1cnc2c(NCc3ccccc3)ncnc21` has an IC50 (Lipoxygenase) of 20 µM.
`O=C(Cc1cc(=O)oc2cc(O)ccc12)NCCCCCCCNC(=O)c1cccc2c(=O)c3ccccc3[nH]c12` showed a Ratio IC50 (Acetylcholinesterase [9]) of 3, an IC50 (Cholinesterase [10]) of 32.5 µM and an IC50 (Acetylcholinesterase [11]) of 5.85 µM.
`C/C(=N\Nc1nc(-c2cc3ccccc3oc2=O)cs1)c1ccc(Br)cc1` showed an IC50 [4] of 0.11 µM, a Ratio IC50 [12] of 3 and a Ratio IC50 (Bos taurus) of 9.17.
`Cc1ccc(-n2c(-c3cc4ccccc4oc3=O)cs/c2=N/NC(=O)c2cc3ccccc3oc2=O)c(C)c1` showed an IC50 [13] of 1.38 µM.
`O=c1oc2ccccc2c(O)c1/C=C/n1cnc2c(N3CCCCC3)ncnc21` gave an IC50 (Lipoxygenase) of 6.25 µM and a Ratio IC50 [14] of 4.
For `CCN1C(C)=CC/C1=N/N=C(\C)c1cc2ccccc2oc1=O`, the inhibition in vivo at 10 µmol/kg (Rattus norvegicus [2]) was 88.9% and the IC50 [3] was 56 to 167 µM.
`CC1=CC/C(=N/N=C(\C)c2cc3ccccc3oc2=O)N1C` showed an inhibition in vivo at 10 µmol/kg (Rattus norvegicus [2]) of 90% and an IC50 [3] of 56 to 167 µM.
Work on `COc1cc(C2CC(c3cc4ccccc4oc3=O)=NN2c2nc(-c3ccc(Br)cc3)cs2)ccc1OCc1ccccc1` (configuration not stated) yielded an IC50 (Tyrosinase) of 0.00458 µM.
`C/C(=N\N=C1\CC(C)C(=O)N1C)c1cc2ccccc2oc1=O` (configuration not stated) gave an inhibition in vivo at 10 µmol/kg (Rattus norvegicus [2]) of 92.2%, an IC50 [3] of 56 to 167 µM and a Ratio IC50 (Homo sapiens) of 223.
